Assay results from patent US6797077B2, “Latex paint remover” (Pentagonal Holdings, Inc., priority 2000, dated 2004).
“Also recorded” adds a separate entry of the source.

Legend:
Assay type in all cases: in vivo
[1] = Acute oral toxicity, Federal Hazardous Substances Act 16 CFR 1500.3(c)(2)(i)
Description: (§1) A cleaning composition composed of pure IBIB was tested for toxicity, skin irritation and eye irritation according to the protocol of the Federal Hazardous Substances Act, 16 CFR 1500.3(c)(2)(i), 1500.41 and 1500.42.

[2] = Skin irritation, 16 CFR 1500.41 and 1500.3(c)(4)
Description: as §1

[3] = Eye irritation, 16 CFR 1500.42 and 1500.3(c)(4)
Description: as §1

## CC(C)COC(=O)C(C)C [IBIB, Isobutyl isobutyrate]
[1]; 16 CFR 1500.3(c)(2)(i)
  Acute oral toxicity conclusion: non-toxic; also recorded: Not considered as toxic
[1]; dose level 5,000 mg/kg
  Acute Oral LD50: Acute Oral LD50 greater than five (5) grams per gram body weight
[2]; 16 CFR 1500.41
  Skin irritation conclusion: not considered to be a primary skin irritant
[2]; in vivo
  Primary Dermal Irritation Score (Average): 2.4
[3]; 16 CFR 1500.42
  Eye irritation conclusion: not considered to be a primary eye irritant
[3]; eye irritation
  Maximum Mean Total Score (Average): 3.3
